According to PubChem BioAssay AID449764 (Southern Research Specialized Biocontainment Screening …, 2010):

Tested on: Mycobacterium tuberculosis H37Rv growth inhibition, no glycerol
Assay: Mycobacterium tuberculosis H37Rv growth inhibition, no glycerol, confirmatory dose response (AID 449764);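 note: growth read after 7 days of incubation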
Settings: measured here: IC90 growth inhibition

| Compound | IC90 [µM] |
| --- | --- |
| O=C(/C=C/c1ncc(C(F)(F)F)cc1Cl)OCc1ccccc1 | > 100 |
| CN1C2CCC1/C(=C/c1ccccn1)C(=O)/C2=C\c1ccccn1 | 26.8 |
| Cc1nn(-c2ccccc2)nc1C(=O)c1c(C)[nH]n(-c2ccccc2)c1=O | 23.2 |
| O=C(CCl)Nc1sccc1C(=O)c1ccccc1 | 12.6 |
| CCCOP(=O)(OCCC)c1c([N+](=O)[O-])cc(C(F)(F)F)cc1[N+](=O)[O-] | 7.7 |
| O=C(/C=C\c1cccs1)N1CCN(Cc2ccc3c(c2)OCO3)CC1 | 1.45 |
| CC(C)(C)c1ccc(C(=O)NNc2cc(N3CCCCC3)nc(N3CCCCC3)n2)cc1 | 74.4 |
| Cn1nc(-c2ccccn2)nc2c(=O)n(C)c(=O)nc1-2 | 13 |
| CCOC(=O)c1c(NC(=O)C(NCCN(C)C)c2ccccc2)sc2c1CCCC2 (centres undefined) | 12.1 |
| Nc1cc(Cl)c2nonc2c1[N+](=O)[O-] | 11.7 |
| N#Cc1nccnc1S(=O)(=O)c1cccs1 | 73.3 |
| CCOC(=O)CSc1nsc(SCC(=O)OCC)c1C#N | 13.5 |
| CCc1ccc2oc(-c3ccc(OC)cc3)cc(=Nc3c(C)n(C)n(-c4ccccc4)c3=O)c2c1 | 23.4 |
| CCCCCCCCCCC[N+](C)(C)CC/C=C1/c2ccccc2Sc2ccc(Cl)cc21 | 9.28 |
| CC1CCC(NC(=O)c2cc3c(s2)CCCC3)CC1 (centres undefined) | > 100 |
| Cc1cccc(NC(=O)CCSc2nnc(Cc3ccccc3)o2)c1 | > 100 |
| CC(C)(C)C(=O)/C(=C\c1cccc([N+](=O)[O-])c1)n1cncn1 | 3.41 |
| O=C(Nc1cc(N2CCOCC2)ncn1)NC1(C(F)(F)F)Oc2ccc(Cl)cc2O1 (centres undefined) | 26.9 |
| Cc1cc(=O)n2[nH]c(Nc3cccc(Cl)c3)nc2n1 | 68 |
| CN(C)CCCNC(=O)c1ccc(-c2nc(-c3ccc(Cl)cc3)cs2)cc1 | 33.8 |
| CSc1nsc(SCC(=O)N2CCCCC2)n1 | 12.9 |
| O=C1NCC(c2ccccc2)C1C(=O)N/N=C\c1ccc(-c2ccc(Cl)c(Cl)c2)o1 (centres undefined) | > 100 |
| CCOC(=O)CCCc1ccc(/C(C)=N/NC(N)=S)cc1 | 25 |

| Compound | IC90 [µM] |
| --- | --- |
| O=C(NC1CCCC(C(F)(F)F)C1)c1ccc([N+](=O)[O-])o1 (centres undefined) | 28.3 |
| O=C(OCC(=O)c1c[nH]c2ccccc12)c1cc(Br)ccc1O | 13.1 |
| COC(=O)N/N=C/c1c[n+]([O-])c2ccccc2[n+]1[O-] | 27.5 |
| CCCc1cc(C(N)=S)ccn1 | > 100 |
| CS(=O)(=O)c1nc(-c2ccccc2)cc(C(F)(F)F)n1 | 27.6 |
| C/C(=N\NC(=S)Nc1cccc(C)c1)c1cccc(N)c1 | 23.7 |
| O=C(N/N=C/c1cccc2cccnc12)[C@H]1C[C@@H]1c1ccccc1 | 56 |
| COCCNC(=S)N/N=C(\C)c1ccc(OC)cc1 | 49 |
| CCCCN(CCCC)CCC(O)c1cc2c(Cl)cc(Cl)cc2c2cc(C(F)(F)F)ccc12 (centres undefined) | 23.4 |
| CC1=NN(C(N)=S)C(=O)C1N=Nc1ccc(C)c(Br)c1 (centres undefined) | > 100 |
| O=c1cc(/C=C/c2ccccc2)oc2ccccc12 | > 100 |
| CSC1=NC(C)(C)C=C(/C=C/c2ccc(Cl)cc2)N1 | 56.7 |
| COc1ccccc1/C(C)=N/NC(=S)NCc1ccccc1 | 27.1 |
| O=C(O)/C=C/C(=O)Nc1ccc(-c2ccccc2)cc1 | > 100 |
| CSCCOC(=O)COc1ccc(/C=N/NC(=O)c2c(Cl)cnn2C)cc1 | 37.7 |
| Cc1ccc(NC(=O)COC(=O)C(NS(=O)(=O)c2ccc(Cl)cc2)C(C)O)cc1C (centres undefined) | 36.2 |
| COC(=O)c1ccc(-c2ncc(-c3cccc4ccccc34)o2)cc1 | > 100 |
| O=C(Nc1ccc(N2CCN(C(=O)c3ccco3)CC2)cc1)C(c1ccccc1)c1ccccc1 | 27.2 |
| CCOC(=O)c1nn(-c2ccc(C)c(C)c2)cc1O | > 100 |
| Cc1c(C(=O)Oc2cccc3ccccc23)cnn1-c1ccccc1 | 26.1 |
| Cc1ccc(-n2nc(C)c3c(C)c(CCC(=O)Nc4ccc(CN5CCCC5)cc4)c(C)nc32)cc1 | 22.1 |
| COc1cc(-c2ccc3oc(-c4ccsc4)cc(=O)c3c2)cc(OC)c1OC | 53.6 |
| CC(=O)O[C@H]1C[C@@]2(C)[C@@H](C[C@@H](O)[C@H]3[C@@]4(C)CC[C@@H](O)[C@@H](C)[C@@H]4CC[C@@]32C)/C1=C(\CCC=C(C)C)C(=O)O | 6.55 |

| Compound | IC90 [µM] |
| --- | --- |
| Nc1ccc(C(=O)OCCCc2nc3cc4ccccc4cc3[nH]2)cc1 | 59.3 |
| CCc1ccc(Nc2n[n+](C)c(-c3ccncc3)s2)cc1 | 47.6 |
| CCOC(=O)CSc1ncc(OC)c(Sc2ccc(OC)cc2)n1 | 54.3 |
| Cc1ccc(Cn2c(C(CO)Nc3nc(-c4ccc(F)cc4)cs3)nc3ccccc32)cc1 (centres undefined) | 91.8 |
| O=[N+]([O-])c1cnc(Nc2ccc(Cl)cn2)c([N+](=O)[O-])c1 | 99.4 |
| Cc1ccc(NC(=O)Cn2ccsc2=N)c([N+](=O)[O-])c1 | 34.7 |
| COc1ccccc1N(O)C1CC(=O)N(c2ccc(Br)cc2)C1=O (centres undefined) | 25.9 |
| Cc1ccc2nc(N/N=C/c3ccccc3C#N)nc(-c3ccccc3)c2c1 | > 100 |
| NC(=S)N/N=C/c1ccccc1OCCSc1ccc(Cl)cc1 | > 100 |
| CSCCCNC(=S)N1CCN(c2ccc(C(C)=O)cc2)CC1 | 49.7 |
| Cc1ccc(C(=O)N/C(=C/c2ccco2)C(=O)OCN2C(=O)c3ccccc3C2=O)cc1 | 40.4 |
| COc1ccc(NC(C)C(=O)Nc2ccc(C(C)(C)C)cc2)cc1Cl (centres undefined) | > 100 |
| CCOC(=O)CSc1nc(C)c(C(=O)OCC)s1 | 16.2 |
| Cc1nn(-c2nc3ccccc3[nH]2)c(N)c1-c1ccc(Cl)cc1 | > 100 |
| CC(=O)/C=C(\C)Nc1ccccc1O | 5.87 |
| Cc1ccc2c(c1)nnn2C1CCN(CC(=O)N2CCN(c3ccc(F)cc3)CC2)CC1 | 54.7 |
| Cc1ccc(S(=O)(=O)n2ccc3c(OCCOCCNCc4ccc(F)cc4)cccc32)cc1 | 26 |
| CC(/C=C/c1ccccc1)=N\NC(N)=S | 12.3 |
| Cc1c(Cl)ccc2sc(N3CCN(C(=O)C4=COCCO4)CC3)nc12 | 30.6 |
| Cc1ccc(C(C)C)c(OCC(=O)OCc2c(C)noc2C)c1 | 6.88 |
| O=C(CSc1ccccn1)Nc1nonc1[N+](=O)[O-] | 6.24 |
| COc1ccc(-c2cc3c(=O)n(CC(=O)NCCCN4CCC(Cc5ccccc5)CC4)ncn3n2)cc1 | 39.7 |
| O=C(CCl)Nc1cn(-c2ccccc2)nc1-c1ccccc1 | 1.23 |

| Compound | IC90 [µM] |
| --- | --- |
| CCCCSCCCNC(=O)c1cn(CC)c2ccc(S(=O)(=O)N3CCOCC3)cc2c1=O | 50.8 |
| CCOC(=O)Cn1nc(-c2ccccc2)nc1-c1ccccc1 | 29.4 |
| CCCC(/C=C/c1ccc(OC(C)=O)cc1)=C1/c2ccccc2C(=O)N1c1ccccc1 | 20.9 |
| O=C(N/N=C/c1ccc([N+](=O)[O-])o1)c1sc2ccccc2c1Cl | 8.72 |
| CCOc1cccc(C=Nc2cc(C)cc(C)c2O)c1O | 41.4 |
| Cc1ccc(-n2cc(CNCCn3nc(C)cc3C)c(-c3ccc(F)cc3)n2)cc1 | 13.5 |
| N[C@@H](CCl)C(=O)O | 55.2 |
| CCN1C(N(C)CCc2c[nH]c3ccccc23)=N[C@@H](c2cccc(C(F)(F)F)c2)C(C(=O)OC)=C1C | 25 |
| O=C(OCc1ccccc1F)c1cnc(Cl)c(Cl)c1 | 55 |
| O=C1C(Cl)=C(N2CCOCC2)C(=O)N1c1cccc(Cl)c1 | 12.6 |
| COc1ccc(N2C(=O)C(Cl)=C(Nc3ccccc3O)C2=O)cc1 | 24.8 |
| COc1cccc2sc3ccc(C#CC4(N)CCCCC4)cc3c(=O)c12 | > 100 |
| CC[N+](C)(CC)CCCCOc1ccc2c(c1)C(=O)c1cc(OCCCC[N+](C)(CC)CC)ccc1-2 | 2.11 |
| CC(=O)c1sc(NC(=O)c2cc(=O)c3ccccc3o2)nc1C | > 100 |
| O=C1N=C(N2CCC(Cc3ccccc3)CC2)S/C1=C/c1cn[nH]c1-c1ccccc1 | > 100 |
| O=S1(=O)CCC(N=Cc2ccc(-c3ccc(Cl)cc3)o2)C1 (centres undefined) | > 100 |
| Cc1cc(Br)ccc1NC(=O)c1cnc(N2CCN(c3ccccn3)CC2)c2ccccc12 | 3.49 |
| CCCc1ccc2oc(C(=O)N(C)Cc3nccs3)c(C)c2c1 | 68.3 |
| N#C/C(=C\c1ccc(-c2ccc(Br)cc2)o1)C(=O)NCCc1c[nH]c2ccccc12 | > 100 |
| O=S(Cc1ccc(Br)cc1)Cc1nnc(SCc2ccc(Cl)cc2)n1-c1ccccc1 (centres undefined) | > 100 |
